# According to patent US11406707B2, “STAT3 phosphorylation during graft-versus-host disease” (H. LEE MOFFITT CANCER CENTER AND RESEARCH INSTITUTE, INC., priority 2014, dated 2022):
# Assays:
# [1] = tested on: allostimulated T-cell proliferation; experiment: Primary 5-day alloMLR T-cell proliferation; assay type: cell-based, human
# Excerpt: Bulk donor T-cells were allostimulated with cytokine-matured, allogeneic moDCs at a DC:T-cell ratio of 1:30 as previously described (Florida Blood Services) [Betts, B C, et al. (2011) Blood 118:5330-9; Betts, B C, et al. […] Betts, B C, et al. (2011) Blood 118:5340-3]. […] Lower doses of each drug were used in these experiments to mimic expected physiologic concentrations [Siddiquee, K, et al. (2007) Proceedings of the National Academy of Sciences of the United States of America 104:7391-6; Zeiser, R, et al. (2008) Blood 111:453-62], and to better detect potential synergistic activity with the combination of rapamycin and S3I-201. After 5 days of culture at […]-cell proliferation was measured by a colorimetric assay per the manufacturer's instructions (CellTiter 96 Aqueous One Solution Cell Proliferation Assay [MTS]; Promega, Madison, Wis. USA) [Betts, B C, et al. (2011) Blood 118:5330-9; Betts, B C, et al. […] Betts, B C, et al. (2011) Blood 118:5340-3]. Absorbance/optical density (OD) was analyzed at 490 nm. Secondary alloMLR: […] Following priming, the T-cells were then rested and re-cultured with fresh first-party moDCs (DC:T-cell ratio of 1:30). […] After 3 days, T-cell proliferation was measured by a colorimetric assay as described (Promega). T-cells alone and PHA-stimulated T-cells served as negative and positive controls, respectively, for both the primary and secondary alloMLRs.
# CD8+ T cells = experiment: Evaluation of CD8 CTL capacity (CD107a, IFN-γ); assay type: cell-based, human; settings: S3I-201 50 or 100 μM, day 5
# Procedure: The naive CD8^+ T cells were purified by live cell sorting (CD4^− and CD45RO/CD25^−) and were stimulated with allogeneic moDCs (DC:T cell ratio of 1:30), with S3I-201 (50 or 100 μM) or DMSO added once on day 0. On day 5, the allosensitized CD8 T cells were harvested and stimulated with PMA/ionomycin in the presence of Golgi Stop and anti-CD107a, followed by surface CD8 and intracellular IFN-γ staining.
# [2] = S3I-201 treatment of GVHD in vivo (B6 marrow +/- T-cells into Balb/c mice)
# Excerpt: (§1) FIG. 7. B6 T-cell depleted marrow (+/− T-cells) were given to Balb/c mice. S3I-201 or vehicle was given by i.p. from day 0 to day +7 only. Mice were then followed for body weight (FIG. 7B), GVHD clinical scores (FIGS. 7C, 7D), and survival (FIG. 7A).
# as §1, with “B6” for “FIG. 7. B6”, “7A). […] All of the GVHD control mice (i.e., TCD marrow+T-cells+vehicle) have since died of GVHD.” for “7A).”
# T cells = experiment: T-cell viability by Live/Dead staining in treated allo-MLRs; assay type: cell-based, human
# Procedure: Fluorochrome-conjugated mouse anti-human mAbs included anti-CD3, -CD4, -CD8, -CD25, -CD45RO, -CD107a, -CD127, -Foxp3, -pSTAT3/pY705, -pSTAT5/pY694, -IFN-, and -IL-17A (BD Biosciences, San Jose, Calif. USA; eBioscience; San Diego, Calif., USA; Invitrogen; Carlsbad, Calif., USA). Viability was assessed by Live/Dead staining (Invitrogen). Live events were acquired on FACSCalibur or LSRII (BD Biosciences) flow cytometers (FlowJo software, ver. 7.6.4; TreeStar, Ashland, Oreg., USA). Gates were defined by appropriate isotype controls. Naive T-cell sorting was performed on the FACSVantageDiVa (BD Biosciences). Where indicated, CD4^+ T cells were purified by magnetic-bead negative selection (Miltenyi Biotec, Auburn, Calif., USA).
# [3] = tested on: DC-allosensitized T-cell proliferation; experiment: allo-MLR T-cell proliferation (colorimetric MTS assay, stimulation index); assay type: cell-based, human; settings: for T-cell proliferation: day 5
# Procedure: Allo-MLRs consisted of T cells stimulated by cytokine-mature moDCs (DC:T-cell ratio 1:30, 1×10^5 T cells per 100 μl medium in a 96-well plate, 37° C.). […] The allogeneic moDC stimulators were matured with a cytokine cocktail and terminally differentiated, eliminating the need for irradiation [Betts, B. C., et al. (2011) Blood 118, 5330-5339]. T-cell proliferation was quantified by a colorimetric assay (CellTiter 96 AQueous One Solution Cell Proliferation Assay [MTS]; Promega, Madison, Wis.) on day 5, per the manufacturer's instructions, with absorbance quantified at 490 nm [Betts, B. C., et al. (2011) Blood 118, 5330-5339]. The stimulation index was calculated by dividing the OD of the allo-MLR by the OD of T cells alone. PHA-stimulated T cells served as a positive control. Identical allo-MLRs were cultured with CAS 285986-31-4, to determine the dose-response effect of STAT5 inhibition on allostimulated T-cell growth. For these initial experiments, the cultures were analyzed on day 4 because of the early rapid T-cell proliferation among the STAT5 inhibitor-treated wells. The stimulation index was determined as described.
# STAT3 Y705 = molecular target: T1, STAT3 Y705 (Homo sapiens, UniProt P40763); experiment: IL-6-STAT3 Y705 phosphorylation in DC-allostimulated donor T-cells; assay type: cell-based; settings: S3I-201 50 uM, 4 hours, IL-6 pulse
# T1 construct: endogenous in cells; host or cells: primary human T cells from healthy-donor PBMC, allostimulated by monocyte-derived dendritic cells
# Procedure: T-cells were serum-starved in RPMI treated with DMSO diluent control, rapamycin 100 ng/ml (EMD Millipore, Billerica, Mass. USA), or STAT3 inhibitor S3I-201 50 uM (H. Lee Moffitt Cancer Center, Drug Discovery Core) for 4 hours. For the STAT3 experiments, the T-cells were first DC-allostimulated (DC:T-cell ratio of 1:30) for 3 days to optimize surface expression of IL-6 receptor alpha and STAT3 signaling among healthy volunteers. The T-cells were then cytokine-pulsed for 15 minutes with either IL-2 (R&D Systems) to activate the Akt-mTOR-S6 pathway, or IL-6 to stimulate STAT3 phosphorylation. The cells were then fixed and permeabilized as described, and then stained for CD3, CD4 (STAT3 experiments), phosphorylated STAT3 Y705, and phosphorylated S6.
# T1 sequence (P40763 whole entry): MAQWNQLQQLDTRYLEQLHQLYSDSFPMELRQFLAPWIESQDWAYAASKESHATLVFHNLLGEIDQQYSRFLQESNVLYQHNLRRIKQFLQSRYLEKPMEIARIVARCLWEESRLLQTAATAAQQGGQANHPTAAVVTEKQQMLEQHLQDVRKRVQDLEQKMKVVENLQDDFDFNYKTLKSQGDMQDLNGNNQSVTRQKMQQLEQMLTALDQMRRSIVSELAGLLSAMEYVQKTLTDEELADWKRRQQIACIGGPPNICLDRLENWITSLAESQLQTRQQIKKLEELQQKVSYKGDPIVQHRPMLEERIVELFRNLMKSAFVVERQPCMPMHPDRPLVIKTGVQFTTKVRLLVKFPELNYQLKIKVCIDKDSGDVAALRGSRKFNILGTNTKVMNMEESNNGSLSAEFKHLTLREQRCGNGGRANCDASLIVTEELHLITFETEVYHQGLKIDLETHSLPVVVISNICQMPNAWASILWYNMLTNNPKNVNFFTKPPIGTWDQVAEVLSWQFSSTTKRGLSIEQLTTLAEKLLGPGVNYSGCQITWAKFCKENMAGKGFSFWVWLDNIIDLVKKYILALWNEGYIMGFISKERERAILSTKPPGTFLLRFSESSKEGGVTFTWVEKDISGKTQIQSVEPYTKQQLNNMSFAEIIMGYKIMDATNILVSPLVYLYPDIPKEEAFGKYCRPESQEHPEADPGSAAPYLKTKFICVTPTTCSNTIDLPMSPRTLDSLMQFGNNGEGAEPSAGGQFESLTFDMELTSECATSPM
compound,measurement,setting,value
Cc1ccc(S(=O)(=O)OCC(=O)Nc2ccc(C(=O)O)c(O)c2)cc1 [S3I-201],allostimulated T-cell proliferation,[1]; S3I-201 50 uM single agent,significantly reduced
same,alloreactive T-cell proliferation,[1]; S3I-201 below 50 μM single agent,no effect
same,CTL potential vs DMSO control,CD8+ T cells,not significantly different
same,cytolytic potential by CD107a expression and intracellular IFN-γ production,CD8+ T cells,intact cytolytic potential
same,tolerability,[2]; 2.5 mg/kg i.p. day 0 to day +7,well tolerated
same,tolerability,[2]; 5 mg/kg i.p. day 0 to day +7,toxic
same,survival,"[2]; S3I-201 i.p. day 0 to day +7, GVHD control mice all died",alive at day +53
same,T-cell viability,T cells; S3I-201 50 μM,preserved
same,T-cell viability (viability staining),T cells; S3I-201 100 μM,toxicity
same,reduction in T-cell proliferation,"[3]; S3I-201 50 μM added once day 0, readout day 5",50%
same,T-cell proliferation,[3]; S3I-201 100 μM,complete impairment
same,T-cell proliferation,[3]; S3I-201 1 or 10 μM,little effect
same,T-cell proliferation in allo-MLRs compared with DMSO,"[3]; S3I-201 50 or 100 μM, FIG. 1B",significantly reduced
same,IL-6-mediated STAT3 phosphorylation of Y705,STAT3 Y705,significantly decreased
